From publication PMC11405510 (Scientific Reports, 2024)

Molecular target: T1, Ha006a (Helicoverpa armigera, UniProt D5G3E0)
T1 sequence (D5G3E0 25-548): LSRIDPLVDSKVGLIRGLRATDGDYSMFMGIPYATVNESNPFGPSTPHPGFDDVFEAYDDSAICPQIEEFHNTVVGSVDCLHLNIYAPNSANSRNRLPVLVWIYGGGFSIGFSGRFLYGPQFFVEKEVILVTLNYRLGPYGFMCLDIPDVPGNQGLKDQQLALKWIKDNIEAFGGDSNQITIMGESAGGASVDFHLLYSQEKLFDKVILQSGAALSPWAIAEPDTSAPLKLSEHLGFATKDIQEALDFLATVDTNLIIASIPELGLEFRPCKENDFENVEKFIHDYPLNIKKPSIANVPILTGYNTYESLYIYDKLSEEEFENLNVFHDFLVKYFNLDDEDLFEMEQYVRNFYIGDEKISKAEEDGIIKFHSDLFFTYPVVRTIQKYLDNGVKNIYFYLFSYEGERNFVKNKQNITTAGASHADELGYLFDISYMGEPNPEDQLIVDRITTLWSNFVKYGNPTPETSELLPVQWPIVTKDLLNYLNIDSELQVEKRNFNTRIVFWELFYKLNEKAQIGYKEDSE
Experiment: Differential scanning calorimetry of Ha006a-ligand complexes
Assay type: binding
Settings: DSC; for Tm1 (°C) ± SE: first thermal transition, 50 μM protein, non-two-state fit; for Tm2 (°C) ± SE: second thermal transition; for Tm3 (°C) ± SE: third thermal transition

COc1cc(OC)c2c(=O)cc(-c3ccc(OC)c(OC)c3)oc2c1 [3′,4′,5,7-Tetramethoxyflavone]
Tm1 (°C) ± SE: Tm1 51.52 ± 0.25 °C
ΔH (molar heat enthalpy) (first transition (Tm1)): 584000 kcal/mol
ΔHv (van't Hoff enthalpy) (first transition (Tm1)): 34000 kcal/mol
ΔHv/ΔH (first transition (Tm1)): 0.06
Tm2 (°C) ± SE: Tm2 79.01 ± 0.98 °C
ΔH (molar heat enthalpy) (second transition (Tm2)): 957000 kcal/mol
ΔHv (van't Hoff enthalpy) (second transition (Tm2)): 35300 kcal/mol
ΔHv/ΔH (second transition (Tm2)): 0.04
Tm3 (°C) ± SE: Tm3 91.76 ± 0.43 °C
ΔH (molar heat enthalpy) (third transition (Tm3)): 358000 kcal/mol
ΔHv (van't Hoff enthalpy) (third transition (Tm3)): 58800 kcal/mol
ΔHv/ΔH (third transition (Tm3)): 0.16

O=P(Oc1ccccc1)(Oc1ccccc1)Oc1ccccc1 [Triphenyl phosphate, reference compound]
Tm1 (°C) ± SE: Tm1 51.32 ± 1.70 °C
ΔH (molar heat enthalpy) (first transition (Tm1)): 457000 kcal/mol
ΔHv (van't Hoff enthalpy) (first transition (Tm1)): 35900 kcal/mol
ΔHv/ΔH (first transition (Tm1)): 0.08
Tm2 (°C) ± SE: Tm2 67.66 ± 0.26 °C
ΔH (molar heat enthalpy) (second transition (Tm2)): 1.31e+06 kcal/mol
ΔHv (van't Hoff enthalpy) (second transition (Tm2)): 66800 kcal/mol
ΔHv/ΔH (second transition (Tm2)): 0.05
Tm3 (°C) ± SE: Tm3 78.21 ± 0.44 °C
ΔH (molar heat enthalpy) (third transition (Tm3)): 472000 kcal/mol
ΔHv (van't Hoff enthalpy) (third transition (Tm3)): 89500 kcal/mol
ΔHv/ΔH (third transition (Tm3)): 0.19

O=C(/C=C/C=C/c1ccc2c(c1)OCO2)N1CCCCC1 [Piperine]
Tm1 (°C) ± SE: Tm1 51.30 ± 0.32 °C
ΔH (molar heat enthalpy) (first transition (Tm1)): 218000 kcal/mol
ΔHv (van't Hoff enthalpy) (first transition (Tm1)): 43300 kcal/mol
ΔHv/ΔH (first transition (Tm1)): 0.20
Tm2 (°C) ± SE: Tm2 65.47 ± 0.33 °C
ΔH (molar heat enthalpy) (second transition (Tm2)): 209000 kcal/mol
ΔHv (van't Hoff enthalpy) (second transition (Tm2)): 40800 kcal/mol
ΔHv/ΔH (second transition (Tm2)): 0.20
Tm3 (°C) ± SE: Tm3 80.80 ± 0.36 °C
ΔH (molar heat enthalpy) (third transition (Tm3)): 44600 kcal/mol
ΔHv (van't Hoff enthalpy) (third transition (Tm3)): 40900 kcal/mol
ΔHv/ΔH (third transition (Tm3)): 0.92

CN1CCc2cc3c(cc2C(=O)Cc2ccc4c(c2C1)OCO4)OCO3 [Protopine]
Tm1 (°C) ± SE: Tm1 49.93 ± 0.55 °C
ΔH (molar heat enthalpy) (first transition (Tm1)): 630000 kcal/mol
ΔHv (van't Hoff enthalpy) (first transition (Tm1)): 43200 kcal/mol
ΔHv/ΔH (first transition (Tm1)): 0.07
Tm2 (°C) ± SE: Tm2 66.76 ± 0.33 °C
ΔH (molar heat enthalpy) (second transition (Tm2)): 1.87e+06 kcal/mol
ΔHv (van't Hoff enthalpy) (second transition (Tm2)): 31500 kcal/mol
ΔHv/ΔH (second transition (Tm2)): 0.02
Tm3 (°C) ± SE: Tm3 86.29 ± 0.67 °C
ΔH (molar heat enthalpy) (third transition (Tm3)): 783000 kcal/mol
ΔHv (van't Hoff enthalpy) (third transition (Tm3)): 40100 kcal/mol
ΔHv/ΔH (third transition (Tm3)): 0.05
